Measurements published in patent publication US9468213B2, “Herbicide formulation” (Syngenta Crop Protection LLC, priority 2008, dated 2016).

Assays:
[1] = Comparative HPPD stability: decomposition of mesotrione in the formulation acidified by various acids; format: physicochemical
Description: The final formulation is prepared by 134.4 grams of the S-metolachlor CS with 22.9 grams of water and under agitation adding 15.2 grams of the mesotrione millbase. This is followed by the addition of 152.7 grams of the Potassium Glyphosate concentrate and then 17.5 grams of the Rhodopol 23 pregel of the previous example. […]

[2] = Stability of mesotrione in chloroacetamides (Example 6, FIG. 1 and FIG. 2); format: physicochemical; conditions: in chloroacetamides (S-MOC=S-metolachlor)
Description: Experiments were conducted to look at the stability of mesotrione in chloroacetamides.

## CS(=O)(=O)c1ccc(C(=O)C2C(=O)CCCC2=O)c([N+](=O)[O-])c1 [Mesotrione, 2-(2′-nitro-4′-methylsulphonylbenzoyl)-1,3-cyclohexanedione]
[1]; Gluconic acid, 38 C., 1 MONTH
  Percentage Decomposition of Mesotrione: 4.30%
[1]; Gluconic acid, 38 C., 1 WEEK
  Percentage Decomposition of Mesotrione: 1.59%
[1]; Gluconic acid, 38 C., 2 MONTHS
  Percentage Decomposition of Mesotrione: 7.42%
[1]; Gluconic acid, 38 C., 2 WEEKS
  Percentage Decomposition of Mesotrione: 1.77%
[1]; Gluconic acid, 38 C., 3 MONTHS
  Percentage Decomposition of Mesotrione: 11.23%
[1]; Gluconic acid, 38 C., 3 WEEKS
  Percentage Decomposition of Mesotrione: 3.00%
[1]; Gluconic acid, 45 C., 1 MONTH
  Percentage Decomposition of Mesotrione: 10.22%
[1]; Gluconic acid, 45 C., 1 WEEK
  Percentage Decomposition of Mesotrione: 1.75%
[1]; Gluconic acid, 45 C., 2 MONTHS
  Percentage Decomposition of Mesotrione: 23.39%
[1]; Gluconic acid, 45 C., 2 WEEKS
  Percentage Decomposition of Mesotrione: 4.91%
[1]; Gluconic acid, 45 C., 3 MONTHS
  Percentage Decomposition of Mesotrione: 35.81%
[1]; Gluconic acid, 45 C., 3 WEEKS
  Percentage Decomposition of Mesotrione: 6.77%
[1]; Gluconic acid, 50 C., 1 MONTH
  Percentage Decomposition of Mesotrione: 26.24%
[1]; Gluconic acid, 50 C., 1 WEEK
  Percentage Decomposition of Mesotrione: 5.91%
[1]; Gluconic acid, 50 C., 2 MONTHS
  Percentage Decomposition of Mesotrione: 54.80%
[1]; Gluconic acid, 50 C., 2 WEEKS
  Percentage Decomposition of Mesotrione: 11.61%
[1]; Gluconic acid, 50 C., 3 DAYS
  Percentage Decomposition of Mesotrione: 3.26%
[1]; Gluconic acid, 50 C., 3 MONTHS
  Percentage Decomposition of Mesotrione: 73.08%
[1]; Gluconic acid, 50 C., 3 WEEKS
  Percentage Decomposition of Mesotrione: 17.40%
[1]; Gluconic acid, −18 C., 6 MONTHS
  Percentage Decomposition of Mesotrione: −0.18%
[1]; No acid, 38 C., 1 MONTH
  Percentage Decomposition of Mesotrione: 17.27%
[1]; No acid, 38 C., 1 WEEK
  Percentage Decomposition of Mesotrione: 4.63%
[1]; No acid, 38 C., 2 MONTHS
  Percentage Decomposition of Mesotrione: 25.52%
[1]; No acid, 38 C., 2 WEEKS
  Percentage Decomposition of Mesotrione: 9.97%
[1]; No acid, 38 C., 3 MONTHS
  Percentage Decomposition of Mesotrione: 31.02%
[1]; No acid, 38 C., 3 WEEKS
  Percentage Decomposition of Mesotrione: 13.05%
[1]; No acid, 45 C., 1 MONTH
  Percentage Decomposition of Mesotrione: 32.01%
[1]; No acid, 45 C., 1 WEEK
  Percentage Decomposition of Mesotrione: 11.97%
[1]; No acid, 45 C., 2 MONTHS
  Percentage Decomposition of Mesotrione: 49.76%
[1]; No acid, 45 C., 2 WEEKS
  Percentage Decomposition of Mesotrione: 19.71%
[1]; No acid, 45 C., 3 MONTHS
  Percentage Decomposition of Mesotrione: 62.57%
[1]; No acid, 45 C., 3 WEEKS
  Percentage Decomposition of Mesotrione: 25.71%
[1]; No acid, 50 C., 1 MONTH
  Percentage Decomposition of Mesotrione: 53.82%
[1]; No acid, 50 C., 1 WEEK
  Percentage Decomposition of Mesotrione: 20.39%
[1]; No acid, 50 C., 2 MONTHS
  Percentage Decomposition of Mesotrione: 77.94%
[1]; No acid, 50 C., 2 WEEKS
  Percentage Decomposition of Mesotrione: 35.25%
[1]; No acid, 50 C., 3 DAYS
  Percentage Decomposition of Mesotrione: 11.30%
[1]; No acid, 50 C., 3 MONTHS
  Percentage Decomposition of Mesotrione: 88.38%
[1]; No acid, 50 C., 3 WEEKS
  Percentage Decomposition of Mesotrione: 46.31%
[1]; No acid, −18 C., 6 MONTHS
  Percentage Decomposition of Mesotrione: 1.07%
[1]; Phosphoric acid, 38 C., 1 MONTH
  Percentage Decomposition of Mesotrione: 3.48%
[1]; Phosphoric acid, 38 C., 1 WEEK
  Percentage Decomposition of Mesotrione: 1.30%
[1]; Phosphoric acid, 38 C., 2 MONTHS
  Percentage Decomposition of Mesotrione: 5.08%
[1]; Phosphoric acid, 38 C., 2 WEEKS
  Percentage Decomposition of Mesotrione: 1.09%
[1]; Phosphoric acid, 38 C., 3 MONTHS
  Percentage Decomposition of Mesotrione: 7.65%
[1]; Phosphoric acid, 38 C., 3 WEEKS
  Percentage Decomposition of Mesotrione: 1.40%
[1]; Phosphoric acid, 45 C., 1 MONTH
  Percentage Decomposition of Mesotrione: 7.12%
[1]; Phosphoric acid, 45 C., 1 WEEK
  Percentage Decomposition of Mesotrione: 1.87%
[1]; Phosphoric acid, 45 C., 2 MONTHS
  Percentage Decomposition of Mesotrione: 14.59%
[1]; Phosphoric acid, 45 C., 2 WEEKS
  Percentage Decomposition of Mesotrione: 2.43%
[1]; Phosphoric acid, 45 C., 3 MONTHS
  Percentage Decomposition of Mesotrione: 23.48%
[1]; Phosphoric acid, 45 C., 3 WEEKS
  Percentage Decomposition of Mesotrione: 3.13%
[1]; Phosphoric acid, 50 C., 1 MONTH
  Percentage Decomposition of Mesotrione: 16.79%
[1]; Phosphoric acid, 50 C., 1 WEEK
  Percentage Decomposition of Mesotrione: 2.93%
[1]; Phosphoric acid, 50 C., 2 MONTHS
  Percentage Decomposition of Mesotrione: 36.38%
[1]; Phosphoric acid, 50 C., 2 WEEKS
  Percentage Decomposition of Mesotrione: 7.09%
[1]; Phosphoric acid, 50 C., 3 DAYS
  Percentage Decomposition of Mesotrione: 1.77%
[1]; Phosphoric acid, 50 C., 3 MONTHS
  Percentage Decomposition of Mesotrione: 58.11%
[1]; Phosphoric acid, 50 C., 3 WEEKS
  Percentage Decomposition of Mesotrione: 10.85%
[1]; Phosphoric acid, −18 C., 6 MONTHS
  Percentage Decomposition of Mesotrione: 0.94%
[1]; Toluene-sulfonic acid, 38 C., 1 MONTH
  Percentage Decomposition of Mesotrione: 2.81%
[1]; Toluene-sulfonic acid, 38 C., 1 WEEK
  Percentage Decomposition of Mesotrione: 0.75%
[1]; Toluene-sulfonic acid, 38 C., 2 MONTHS
  Percentage Decomposition of Mesotrione: 4.00%
[1]; Toluene-sulfonic acid, 38 C., 2 WEEKS
  Percentage Decomposition of Mesotrione: 0.78%
[1]; Toluene-sulfonic acid, 38 C., 3 MONTHS
  Percentage Decomposition of Mesotrione: 2.14%
[1]; Toluene-sulfonic acid, 38 C., 3 WEEKS
  Percentage Decomposition of Mesotrione: 1.74%
[1]; Toluene-sulfonic acid, 45 C., 1 MONTH
  Percentage Decomposition of Mesotrione: 5.85%
[1]; Toluene-sulfonic acid, 45 C., 1 WEEK
  Percentage Decomposition of Mesotrione: 1.64%
[1]; Toluene-sulfonic acid, 45 C., 2 MONTHS
  Percentage Decomposition of Mesotrione: 11.08%
[1]; Toluene-sulfonic acid, 45 C., 2 WEEKS
  Percentage Decomposition of Mesotrione: 3.06%
[1]; Toluene-sulfonic acid, 45 C., 3 MONTHS
  Percentage Decomposition of Mesotrione: 18.29%
[1]; Toluene-sulfonic acid, 45 C., 3 WEEKS
  Percentage Decomposition of Mesotrione: 4.12%
[1]; Toluene-sulfonic acid, 50 C., 1 MONTH
  Percentage Decomposition of Mesotrione: 13.91%
[1]; Toluene-sulfonic acid, 50 C., 1 WEEK
  Percentage Decomposition of Mesotrione: 2.32%
[1]; Toluene-sulfonic acid, 50 C., 2 MONTHS
  Percentage Decomposition of Mesotrione: 28.00%
[1]; Toluene-sulfonic acid, 50 C., 2 WEEKS
  Percentage Decomposition of Mesotrione: 5.94%
[1]; Toluene-sulfonic acid, 50 C., 3 DAYS
  Percentage Decomposition of Mesotrione: 2.11%
[1]; Toluene-sulfonic acid, 50 C., 3 MONTHS
  Percentage Decomposition of Mesotrione: 44.55%
[1]; Toluene-sulfonic acid, 50 C., 3 WEEKS
  Percentage Decomposition of Mesotrione: 9.69%
[1]; Toluene-sulfonic acid, −18 C., 6 MONTHS
  Percentage Decomposition of Mesotrione: 0.05%
[2]
  stability of mesotrione in chloroacetamides: lack of stability
